How the values were obtained:
Type in all cases: cell-based
RAW264.7 cells = experiment: BODIPY-LPS association with RAW264.7 macrophages (FACScan); details: BODIPY-LPS 1 μg/ml, liposomes 200 μg/ml, 4 h
Method: FIG. 11. Anionic phospholipids block BODIPY-LPS association with RAW264.7 macrophages. Liposomes were prepared by bath-sonication at room temperature for 30 min. RAW264.7 cells (10^6/tube) were incubated either without or with 1 μg/ml BODIPY-LPS in the presence or absence of liposomes (200 μg/ml) at 4° C. for 4 h. Subsequently the cells were washed by centrifugation and the cell associated fluorescence was quantified by FACScan. […] In panel B the mean fluorescence intensity (MFI) ratio of cells plus LPS/cells without LPS is plotted against different phospholipid treatments. Values shown in B are means±SE for three independent experiments with duplicate determinations in each experiment. Significance—* p<0.05, ** p<0.01
RAW264.7 cells (10^6) were incubated with BODIPY-LPS (1 μg/ml) either with or without phospholipid liposomes (200 μg/ml) at 4° C. for 4 h. When liposomes were added, […] preceded the addition of fluorescent LPS. After the cells were washed with PBS by centrifugation, cell adherent fluorescence was determined using FACScan. Macrophages were counted for 20,000 cells and the graph was made by CellQuest software.

TLR5 = biological target: T1, TLR5 (Homo sapiens, UniProt O60602); experiment: TLR agonist IL-8 production in BEAS2B epithelial cells, TLR5; details: flagellin, 48 h
T1 construct: endogenous in cells; host or cells: BEAS2B
Method: (§1) In this experiment, multiple TLRs were stimulated with defined TLR agonists for 48 h, and the IL-8 production was measured. In each case, the maximal stimulation by agonist is set at 100% and the antagonism by POPG or PI is expressed as the relative % response. The Controls consist of no treatment, or treatment with POPG, or phosphatidylcholine (POPC), or phosphatidylinositol (PI), in the absence of agonist as indicated. The agonists for the TLRs consist of Pam3Cys for TLR1/2, Mycoplasma pneumoniae membranes as an agonist for TLR2, Mycoplasma fermentans derived MALP2 as an agonist for TLR 2/6, double stranded RNA (poly IC) for TLR3, and bacterial flagellin (Fla) as an agonist for TLR5.
(§2) Monolayers of BEAS2B cells were challenged with the TLR1/2 agonist, Pam3Cys (25 ug/ml); the TLR 2/6 agonist MALP2 (10 ng/ml); the TLR2 agonist mycoplasma membrane (Mem) (1 ug/ml); the TLR3 agonist, poly I:C (0.1 ug/ml); and the TLR5 agonist, flagellin (100 ng/ml). For each agonist parallel incubations were performed containing 200 ug/ml POPG as liposomes, or 200 ug/ml POPG as nanodises as indicated.

TLR3 = biological target: T2, TLR3 (Homo sapiens, UniProt O15455); experiment: TLR agonist IL-8 production in BEAS2B epithelial cells, TLR3; set-up: endogenous in cells; host or cells: BEAS2B; details: poly IC, 48 h
T2 sequence (O15455 24-904): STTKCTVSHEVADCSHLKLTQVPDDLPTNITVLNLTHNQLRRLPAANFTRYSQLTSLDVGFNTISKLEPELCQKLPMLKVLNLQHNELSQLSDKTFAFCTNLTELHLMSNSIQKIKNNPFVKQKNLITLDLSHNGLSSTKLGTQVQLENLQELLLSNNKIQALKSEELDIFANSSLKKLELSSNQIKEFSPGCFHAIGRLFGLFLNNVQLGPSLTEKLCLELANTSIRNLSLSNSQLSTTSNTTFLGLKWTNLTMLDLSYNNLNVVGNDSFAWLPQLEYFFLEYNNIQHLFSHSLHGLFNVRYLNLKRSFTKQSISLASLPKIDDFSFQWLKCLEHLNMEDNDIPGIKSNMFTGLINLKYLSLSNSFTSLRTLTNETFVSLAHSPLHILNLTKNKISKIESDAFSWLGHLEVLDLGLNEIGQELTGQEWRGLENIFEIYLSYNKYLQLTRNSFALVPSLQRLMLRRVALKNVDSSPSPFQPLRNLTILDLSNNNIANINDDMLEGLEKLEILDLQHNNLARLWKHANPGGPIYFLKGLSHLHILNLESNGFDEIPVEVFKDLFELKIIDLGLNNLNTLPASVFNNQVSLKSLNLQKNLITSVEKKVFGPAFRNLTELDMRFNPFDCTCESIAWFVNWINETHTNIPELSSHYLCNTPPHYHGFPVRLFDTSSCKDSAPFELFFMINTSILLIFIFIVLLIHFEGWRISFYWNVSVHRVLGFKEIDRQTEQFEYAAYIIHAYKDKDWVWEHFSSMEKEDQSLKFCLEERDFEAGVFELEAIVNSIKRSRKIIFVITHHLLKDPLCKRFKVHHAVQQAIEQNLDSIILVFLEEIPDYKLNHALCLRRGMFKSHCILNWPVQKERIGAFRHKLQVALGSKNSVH
Method: as §1, §2

TLR6 = biological target: T3, TLR6 (Homo sapiens, UniProt Q9Y2C9); experiment: TLR agonist IL-8 production in BEAS2B epithelial cells, TLR6; details: MALP2, 48 h
T3 construct: endogenous in cells; host or cells: BEAS2B
Method: as §1, §2

TLR2 = TLR2 (Homo sapiens, UniProt O60603); experiment: TLR agonist IL-8 production in BEAS2B epithelial cells, TLR2; set-up: endogenous in cells; host or cells: BEAS2B; details: Mycoplasma pneumoniae membranes, 48 h
Method: as §1, §2

Chain of TLR2 (O60603 21-784): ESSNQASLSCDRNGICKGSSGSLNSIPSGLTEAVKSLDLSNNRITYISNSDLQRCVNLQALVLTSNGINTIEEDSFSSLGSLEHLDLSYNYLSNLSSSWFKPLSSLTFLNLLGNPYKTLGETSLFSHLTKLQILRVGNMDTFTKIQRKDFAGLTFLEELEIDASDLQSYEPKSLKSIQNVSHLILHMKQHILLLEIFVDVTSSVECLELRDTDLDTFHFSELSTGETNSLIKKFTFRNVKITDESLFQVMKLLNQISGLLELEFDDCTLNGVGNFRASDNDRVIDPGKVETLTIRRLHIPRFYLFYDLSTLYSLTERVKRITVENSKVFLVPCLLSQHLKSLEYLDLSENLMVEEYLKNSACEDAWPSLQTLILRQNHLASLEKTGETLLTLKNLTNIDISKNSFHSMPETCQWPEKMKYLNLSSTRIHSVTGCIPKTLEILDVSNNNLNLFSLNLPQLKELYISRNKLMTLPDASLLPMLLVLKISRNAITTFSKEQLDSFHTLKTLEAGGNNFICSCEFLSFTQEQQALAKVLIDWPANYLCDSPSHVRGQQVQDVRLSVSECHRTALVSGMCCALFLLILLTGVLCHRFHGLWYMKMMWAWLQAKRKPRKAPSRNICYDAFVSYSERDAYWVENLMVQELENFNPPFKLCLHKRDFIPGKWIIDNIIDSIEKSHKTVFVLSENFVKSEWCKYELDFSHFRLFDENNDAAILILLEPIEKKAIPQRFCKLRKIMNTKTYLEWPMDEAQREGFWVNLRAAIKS
T1 sequence (O60602 21-858): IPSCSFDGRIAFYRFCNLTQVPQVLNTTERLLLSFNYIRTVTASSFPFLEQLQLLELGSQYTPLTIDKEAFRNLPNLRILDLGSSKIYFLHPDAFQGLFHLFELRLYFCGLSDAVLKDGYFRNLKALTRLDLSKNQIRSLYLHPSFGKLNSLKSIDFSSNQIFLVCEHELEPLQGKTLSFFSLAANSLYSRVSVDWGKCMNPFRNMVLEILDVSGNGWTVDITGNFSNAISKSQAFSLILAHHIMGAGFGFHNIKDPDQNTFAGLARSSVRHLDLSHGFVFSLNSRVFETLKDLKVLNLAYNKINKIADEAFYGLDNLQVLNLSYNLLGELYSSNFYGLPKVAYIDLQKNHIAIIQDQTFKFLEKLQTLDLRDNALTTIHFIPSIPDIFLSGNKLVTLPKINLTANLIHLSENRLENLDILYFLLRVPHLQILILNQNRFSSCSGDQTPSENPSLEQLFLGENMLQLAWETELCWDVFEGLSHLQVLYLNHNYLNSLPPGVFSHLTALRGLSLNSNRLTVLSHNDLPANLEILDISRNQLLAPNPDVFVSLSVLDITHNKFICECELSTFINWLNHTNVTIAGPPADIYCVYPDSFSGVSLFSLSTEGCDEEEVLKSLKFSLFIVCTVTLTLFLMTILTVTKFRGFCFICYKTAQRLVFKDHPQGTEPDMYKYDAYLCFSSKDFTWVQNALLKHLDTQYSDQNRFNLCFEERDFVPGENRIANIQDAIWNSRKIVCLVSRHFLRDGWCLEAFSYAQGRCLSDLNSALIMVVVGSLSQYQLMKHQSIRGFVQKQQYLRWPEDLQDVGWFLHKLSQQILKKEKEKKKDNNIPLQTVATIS
T3 sequence (Q9Y2C9 32-796): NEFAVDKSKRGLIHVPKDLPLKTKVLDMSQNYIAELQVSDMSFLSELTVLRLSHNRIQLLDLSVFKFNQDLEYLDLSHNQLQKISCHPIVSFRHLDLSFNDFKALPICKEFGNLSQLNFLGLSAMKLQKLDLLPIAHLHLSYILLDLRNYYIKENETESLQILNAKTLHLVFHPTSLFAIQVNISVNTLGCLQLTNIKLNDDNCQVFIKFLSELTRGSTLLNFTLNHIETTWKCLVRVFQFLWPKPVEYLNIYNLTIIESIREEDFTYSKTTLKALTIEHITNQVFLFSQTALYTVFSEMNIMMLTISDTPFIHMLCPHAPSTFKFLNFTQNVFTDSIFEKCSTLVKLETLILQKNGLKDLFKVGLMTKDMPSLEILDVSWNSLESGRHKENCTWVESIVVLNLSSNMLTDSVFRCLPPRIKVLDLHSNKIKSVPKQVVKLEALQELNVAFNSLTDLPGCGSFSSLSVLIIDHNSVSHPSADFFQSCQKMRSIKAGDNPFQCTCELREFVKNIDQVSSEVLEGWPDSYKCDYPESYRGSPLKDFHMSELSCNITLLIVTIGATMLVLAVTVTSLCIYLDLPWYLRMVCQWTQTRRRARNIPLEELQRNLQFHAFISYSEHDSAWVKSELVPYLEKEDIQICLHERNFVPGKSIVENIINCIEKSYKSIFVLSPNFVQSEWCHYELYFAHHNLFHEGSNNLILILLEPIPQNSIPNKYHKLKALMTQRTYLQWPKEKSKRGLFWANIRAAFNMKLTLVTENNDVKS

Row | Compound | binding of BODIPY-LPS to the surface of macrophages (RAW264.7 cells) | activity of TLR5 (IL-8 production) (TLR5) | activity of TLR3 (IL-8 production) (TLR3) | activity of TLR6 (IL-8 production) (TLR6) | activity of TLR2 (IL-8 production) (TLR2)
1 | CCCCCCCC/C=C\CCCCCCCC(=O)O[C@H](COC(=O)CCCCCCCCCCCCCCC)COP(=O)(O)OCC(O)CO (stereo partly shown) [POPG, palmitoyl-oleoyl-phosphatidylglycerol] | blocks the binding | not | inhibit | inhibit | inhibit
2 | phosphatidylinositol [PI] | blocks the binding | not | inhibit | inhibit | inhibit
